Assay results: patent US5104814A, “Assay kit and methods for neuroleptic drugs” (Schering Corporation, priority 1990, dated 1992)

Key:
[1] = tested on: dopamine D-1 receptors; conditions: J. Pharmacol. Exp. Ther., 226: 462 (1983); cited from earlier work
[2] = tested on: rat striatal membranes; assay: In vivo labeling of rat striatal membranes by [N-methyl-^3 H] Compound after subcutaneous injection
[3] = target: T1, D-1 receptor (Rattus norvegicus, UniProt P18901); assay: Saturation binding of [N-methyl-^3 H] Compound in rat striatum; conditions: binding as a function of radioligand concentration, 25 min
T1 construct: Striatal tissue was excised, pooled, and homogenized; from tissue; host or cells: striatum of male Sprague-Dawley rats, homogenized and washed by centrifugation
Description: (§1) Male Sprague-Dawley rats (200 to 250 g) from Charles River Breeding Laboratories, Mass. were used to obtain brain tissue. The rats were decapitated, their brains removed and placed on ice. Striatal tissue was excised, pooled, and homogenized (Brinkman Polytron, 10 sec) in 100 volumes (v/v) of ice cold 50mM Tris-HCl buffer, pH 7.4 (at 25° C.). The homogenate was centrifuged at 20,000×g for 10 min. The resultant pellet was rehomogenized in Tris-HCl buffer and centrifuged again. The final pellet was resuspended in 50 mM Tris-HCl buffer pH 7.4 containing 120 mM NaCl, 5 mM KCL, 2 mM CaCl2, and 1 mM MgCl2.

[4] = Recovery of radioactivity from polypropylene assay tubes (adsorption onto surfaces); format: physicochemical; conditions: polypropylene tubes used in these experiments
[5] = target: T1, D-1 receptor; assay: Competition binding with [N-methyl-^3 H] Compound as radioligand in rat striatal tissue; conditions: rat striatum, radioligand 1.0 nM; read-out: KI, inhibition of binding of the labelled Compound
Description: as §1
To test the receptor specificity of [N-methyl-^3 H]

T1 sequence (P18901 whole entry): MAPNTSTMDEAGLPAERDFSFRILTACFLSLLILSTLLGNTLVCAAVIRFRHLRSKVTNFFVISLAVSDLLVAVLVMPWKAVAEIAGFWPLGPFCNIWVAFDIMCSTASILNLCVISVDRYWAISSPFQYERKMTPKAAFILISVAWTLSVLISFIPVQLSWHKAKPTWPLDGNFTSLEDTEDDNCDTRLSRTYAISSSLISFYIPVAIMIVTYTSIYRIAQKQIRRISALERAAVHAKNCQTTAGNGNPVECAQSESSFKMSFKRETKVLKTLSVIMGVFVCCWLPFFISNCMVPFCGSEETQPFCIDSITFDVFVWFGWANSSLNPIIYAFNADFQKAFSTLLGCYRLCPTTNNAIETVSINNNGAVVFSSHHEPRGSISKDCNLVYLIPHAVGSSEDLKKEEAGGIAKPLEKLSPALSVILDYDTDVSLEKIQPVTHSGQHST

Compound: CN1CCc2cc(Cl)c(O)cc2[C@@H](c2ccccc2)C1 [R-(+)-8-chloro-2,3,4,5-tetrahydro-3-methyl-5-phenyl-1H-3-benzazepine-7-ol, reference compound]
- selectivity for dopamine D-1 receptors over D-2 receptors [1]: 2500 fold
- inhibition of striatal binding of [N-methyl-^3 H] Compound in vivo ([2]; 1 umole of inhibitor): 90%

Compound: [3H]C([3H])([3H])N1CCc2cc(Cl)c(O)cc2C2c3ccccc3CCC21 (stereo not drawn) [[N-methyl-^3 H] Compound]
- KD (disassociation constant) [3]: 1.7 nM
- recoverable radioactivity from the polypropylene tubes [4]: 97%
- time of optimal binding after subcutaneous injection ([2]; subcutaneous, striatal membranes): 1 h

Compound: CN1CCc2cc(Cl)c(O)cc2[C@H]2c3ccccc3CC[C@@H]21 [Compound, [-]trans 6,7,7a,8,9,13b-hexahydro-3-chloro-2-hydroxy-N-methyl-5H-benzo[d]naphtho[2,1-b]-azepine]
- Ki [5]: 3.6 nM
